Our source for the AC50 values is ChEMBL document CHEMBL5291721, “A preclinical secondary pharmacology resource illuminates target-adverse drug reaction associations of marketed drugs” (Nat Commun, 2023).

Where a SMILES comes first, the peptide text is derived from it. [ ]: non-standard residue; d: D form. pGlu = O=C1CC[C@@H](C(=O)O)N1; Thz = O=C(O)[C@@H]1CSCN1

Assay [1] concerns the target Beta-1 adrenergic receptor (Homo sapiens, UniProt P08588). The format is functional.
Assay [2] deals with T1, Alpha-1A adrenergic receptor (Homo sapiens, UniProt P35348).
T1 sequence (P35348 whole entry): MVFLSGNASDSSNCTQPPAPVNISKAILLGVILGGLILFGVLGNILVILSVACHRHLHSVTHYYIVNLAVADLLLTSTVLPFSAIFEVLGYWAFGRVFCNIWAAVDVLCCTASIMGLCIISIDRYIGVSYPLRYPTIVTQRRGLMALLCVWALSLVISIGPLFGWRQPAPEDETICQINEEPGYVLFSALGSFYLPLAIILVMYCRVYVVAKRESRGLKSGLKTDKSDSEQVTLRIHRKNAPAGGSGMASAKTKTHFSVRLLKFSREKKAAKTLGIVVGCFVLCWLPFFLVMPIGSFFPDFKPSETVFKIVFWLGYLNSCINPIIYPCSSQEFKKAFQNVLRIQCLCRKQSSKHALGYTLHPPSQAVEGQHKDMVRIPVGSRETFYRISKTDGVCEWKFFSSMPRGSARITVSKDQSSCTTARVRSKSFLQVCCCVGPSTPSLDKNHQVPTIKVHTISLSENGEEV
The class given is functional, cell-based.

The target in assay [3] is T2, Alpha-2A adrenergic receptor (Homo sapiens, UniProt P08913).
T2 sequence (P08913 whole entry): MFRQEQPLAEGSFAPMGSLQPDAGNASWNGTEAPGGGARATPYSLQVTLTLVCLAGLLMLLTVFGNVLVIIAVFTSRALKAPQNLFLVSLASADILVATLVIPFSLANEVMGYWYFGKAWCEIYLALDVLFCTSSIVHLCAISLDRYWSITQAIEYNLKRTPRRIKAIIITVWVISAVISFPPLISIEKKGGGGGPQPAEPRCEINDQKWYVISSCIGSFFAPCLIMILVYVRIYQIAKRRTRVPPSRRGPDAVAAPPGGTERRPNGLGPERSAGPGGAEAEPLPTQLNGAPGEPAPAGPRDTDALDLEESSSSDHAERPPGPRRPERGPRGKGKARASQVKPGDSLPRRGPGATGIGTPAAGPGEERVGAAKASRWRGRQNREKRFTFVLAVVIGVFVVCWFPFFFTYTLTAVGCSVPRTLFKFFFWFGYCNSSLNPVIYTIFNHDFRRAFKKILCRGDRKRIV
The format is functional, cell-based.

In assay [4] the target is T3, B2 bradykinin receptor (Homo sapiens, UniProt P30411).
T3 sequence (P30411 whole entry): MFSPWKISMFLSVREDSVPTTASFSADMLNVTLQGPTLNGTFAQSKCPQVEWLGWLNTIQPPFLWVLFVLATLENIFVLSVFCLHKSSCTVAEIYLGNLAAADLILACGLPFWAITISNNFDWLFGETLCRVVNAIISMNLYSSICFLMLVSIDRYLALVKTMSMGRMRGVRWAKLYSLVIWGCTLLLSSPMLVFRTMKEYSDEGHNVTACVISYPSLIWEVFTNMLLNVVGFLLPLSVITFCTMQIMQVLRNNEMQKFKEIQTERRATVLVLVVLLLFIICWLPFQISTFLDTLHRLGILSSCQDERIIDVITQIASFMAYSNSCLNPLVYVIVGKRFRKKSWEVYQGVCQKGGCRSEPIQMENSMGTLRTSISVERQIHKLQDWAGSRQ

Assay [5] has as its target D(3) dopamine receptor (Homo sapiens, UniProt P35462).
Assay [6] deals with Growth hormone secretagogue receptor type 1 (Homo sapiens, UniProt Q92847).
Assay [7] has as its target T4, Adenosine receptor A3 (Homo sapiens, UniProt P0DMS8).
T4 sequence (P0DMS8 whole entry): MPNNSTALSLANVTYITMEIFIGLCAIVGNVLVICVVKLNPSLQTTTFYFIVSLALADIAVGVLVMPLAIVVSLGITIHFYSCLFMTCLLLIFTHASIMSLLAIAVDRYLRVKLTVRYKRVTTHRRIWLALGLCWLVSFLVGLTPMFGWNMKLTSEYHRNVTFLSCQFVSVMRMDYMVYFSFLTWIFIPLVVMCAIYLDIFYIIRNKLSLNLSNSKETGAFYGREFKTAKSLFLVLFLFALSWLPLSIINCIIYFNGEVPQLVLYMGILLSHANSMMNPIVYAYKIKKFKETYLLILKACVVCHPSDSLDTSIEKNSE

In assay [8] the target is 5-hydroxytryptamine receptor 2B (Homo sapiens, UniProt P41595). The format is functional, cell-based.
Assay [9] concerns the target T5, Type-1 angiotensin II receptor (Homo sapiens, UniProt P30556).
T5 sequence (P30556 whole entry): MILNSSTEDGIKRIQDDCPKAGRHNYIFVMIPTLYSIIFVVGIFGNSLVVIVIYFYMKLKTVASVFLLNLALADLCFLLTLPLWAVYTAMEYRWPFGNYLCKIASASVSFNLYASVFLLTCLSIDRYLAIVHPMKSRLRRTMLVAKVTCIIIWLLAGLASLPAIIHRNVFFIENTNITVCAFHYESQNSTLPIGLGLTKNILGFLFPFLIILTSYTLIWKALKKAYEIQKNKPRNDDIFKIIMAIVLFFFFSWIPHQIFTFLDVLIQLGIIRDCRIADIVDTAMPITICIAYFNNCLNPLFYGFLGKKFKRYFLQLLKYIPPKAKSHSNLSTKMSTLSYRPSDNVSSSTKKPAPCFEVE

In assay [10] the target is cGMP-inhibited 3',5'-cyclic phosphodiesterase 3A (Homo sapiens, UniProt Q14432). The class given is functional.
Further: assay procedure not described here.

Chain of 5-hydroxytryptamine receptor 2B (P41595 whole entry): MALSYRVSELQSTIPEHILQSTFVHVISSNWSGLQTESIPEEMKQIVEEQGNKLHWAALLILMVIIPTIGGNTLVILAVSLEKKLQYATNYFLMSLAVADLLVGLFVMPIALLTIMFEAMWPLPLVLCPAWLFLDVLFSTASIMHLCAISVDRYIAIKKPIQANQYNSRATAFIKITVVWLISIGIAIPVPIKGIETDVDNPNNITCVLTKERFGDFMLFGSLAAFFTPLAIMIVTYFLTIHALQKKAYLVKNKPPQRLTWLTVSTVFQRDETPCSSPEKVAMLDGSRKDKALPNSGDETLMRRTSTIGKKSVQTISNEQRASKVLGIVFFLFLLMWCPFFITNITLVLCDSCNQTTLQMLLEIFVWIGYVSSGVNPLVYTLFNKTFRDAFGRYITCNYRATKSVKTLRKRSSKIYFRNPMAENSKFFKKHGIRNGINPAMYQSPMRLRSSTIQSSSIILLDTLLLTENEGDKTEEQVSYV
Chain of Beta-1 adrenergic receptor (P08588 whole entry): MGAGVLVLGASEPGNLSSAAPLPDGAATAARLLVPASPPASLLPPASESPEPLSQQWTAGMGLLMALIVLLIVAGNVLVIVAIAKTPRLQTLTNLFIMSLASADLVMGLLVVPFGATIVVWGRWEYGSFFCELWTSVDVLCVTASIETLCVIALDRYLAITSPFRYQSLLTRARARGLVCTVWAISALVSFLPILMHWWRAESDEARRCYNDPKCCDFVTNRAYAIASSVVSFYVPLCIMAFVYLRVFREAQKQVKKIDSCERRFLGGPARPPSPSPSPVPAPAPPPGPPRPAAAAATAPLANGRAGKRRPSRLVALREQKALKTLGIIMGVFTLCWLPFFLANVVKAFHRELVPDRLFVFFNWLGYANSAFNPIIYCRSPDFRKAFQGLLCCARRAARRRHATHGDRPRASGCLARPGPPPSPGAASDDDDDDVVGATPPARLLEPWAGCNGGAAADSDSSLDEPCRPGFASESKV
Chain of D(3) dopamine receptor (P35462 whole entry): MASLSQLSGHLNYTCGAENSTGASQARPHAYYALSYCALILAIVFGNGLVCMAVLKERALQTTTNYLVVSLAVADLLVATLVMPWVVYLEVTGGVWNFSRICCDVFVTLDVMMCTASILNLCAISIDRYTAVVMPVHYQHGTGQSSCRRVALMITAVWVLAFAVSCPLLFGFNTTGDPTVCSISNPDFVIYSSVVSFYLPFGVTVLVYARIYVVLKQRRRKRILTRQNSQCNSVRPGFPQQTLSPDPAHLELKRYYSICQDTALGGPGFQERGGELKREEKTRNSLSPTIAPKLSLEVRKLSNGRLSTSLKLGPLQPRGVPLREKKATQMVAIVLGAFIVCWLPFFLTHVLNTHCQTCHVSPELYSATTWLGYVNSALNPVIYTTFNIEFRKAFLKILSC
Chain of cGMP-inhibited 3',5'-cyclic phosphodiesterase 3A (Q14432 whole entry): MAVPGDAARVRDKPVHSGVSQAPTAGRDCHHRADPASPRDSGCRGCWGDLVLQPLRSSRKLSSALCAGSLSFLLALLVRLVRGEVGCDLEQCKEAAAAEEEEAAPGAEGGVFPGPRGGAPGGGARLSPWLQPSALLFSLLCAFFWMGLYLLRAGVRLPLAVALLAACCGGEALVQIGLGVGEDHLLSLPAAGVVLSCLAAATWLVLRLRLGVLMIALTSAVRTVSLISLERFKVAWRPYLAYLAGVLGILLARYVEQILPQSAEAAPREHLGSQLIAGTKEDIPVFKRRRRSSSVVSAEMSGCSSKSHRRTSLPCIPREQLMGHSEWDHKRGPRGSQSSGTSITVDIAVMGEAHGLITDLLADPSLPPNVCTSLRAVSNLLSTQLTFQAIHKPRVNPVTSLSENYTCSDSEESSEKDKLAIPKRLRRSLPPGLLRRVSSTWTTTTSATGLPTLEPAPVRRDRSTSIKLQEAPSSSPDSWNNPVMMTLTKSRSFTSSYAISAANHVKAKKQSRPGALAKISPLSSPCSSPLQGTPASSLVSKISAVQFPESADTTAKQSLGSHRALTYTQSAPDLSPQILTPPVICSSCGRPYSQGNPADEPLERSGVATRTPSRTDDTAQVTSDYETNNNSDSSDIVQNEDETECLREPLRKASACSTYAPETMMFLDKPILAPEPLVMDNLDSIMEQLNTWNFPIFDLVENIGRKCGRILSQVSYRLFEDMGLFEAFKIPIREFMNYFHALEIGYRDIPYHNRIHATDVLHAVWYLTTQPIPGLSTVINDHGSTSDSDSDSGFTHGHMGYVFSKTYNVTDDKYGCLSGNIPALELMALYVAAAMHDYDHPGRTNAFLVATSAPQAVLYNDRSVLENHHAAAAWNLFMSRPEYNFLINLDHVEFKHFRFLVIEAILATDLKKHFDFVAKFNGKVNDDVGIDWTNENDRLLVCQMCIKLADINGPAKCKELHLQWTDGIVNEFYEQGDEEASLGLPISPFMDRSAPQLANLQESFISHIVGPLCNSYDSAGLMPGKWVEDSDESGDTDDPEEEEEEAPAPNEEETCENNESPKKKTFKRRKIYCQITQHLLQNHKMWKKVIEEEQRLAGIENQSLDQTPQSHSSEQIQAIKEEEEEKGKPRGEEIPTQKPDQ
Chain of Growth hormone secretagogue receptor type 1 (Q92847 whole entry): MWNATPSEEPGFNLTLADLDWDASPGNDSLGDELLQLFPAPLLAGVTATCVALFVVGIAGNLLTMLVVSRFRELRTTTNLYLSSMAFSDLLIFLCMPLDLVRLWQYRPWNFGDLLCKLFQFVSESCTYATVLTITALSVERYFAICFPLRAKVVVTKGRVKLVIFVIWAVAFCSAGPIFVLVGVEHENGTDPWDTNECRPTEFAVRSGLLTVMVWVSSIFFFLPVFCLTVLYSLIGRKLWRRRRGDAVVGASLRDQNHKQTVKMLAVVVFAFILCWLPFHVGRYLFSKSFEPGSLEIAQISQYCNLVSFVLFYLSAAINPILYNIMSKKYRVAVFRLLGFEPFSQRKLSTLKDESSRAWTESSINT

As for `Cn1c(=O)c2c(ncn2CCOC(=O)C(C)(C)Oc2ccc(Cl)cc2)n(C)c1=O` [THEOFIBRATE], the AC50 in assay [1], in assay [2], in [3], in [4], in [5] and in assay [6] was more than 30 µM throughout. Moreover, the concentration at half-maximal activity (AC50) in [7], in assay [8], in assay [9] and in assay [10] was more than 30 µM in each case.
In the case of `O=c1[nH]c2ccccc2n1CCCN1CCN(C(c2ccccc2)c2ccccc2)CC1` [OXATOMIDE], the concentration at half-maximal activity (AC50) (usually the concentration giving half of the maximal activity seen) in [1] was more than 30 µM; in assay [2], more than 30 µM; in assay [3], more than 30 µM; in assay [4], more than 30 µM; in assay [5], 0.13 µM; in assay [6], 8.8 µM. Further, the AC50 is 15 µM in [7], more than 30 µM in assay [8], 17 µM in assay [9] and more than 30 µM in assay [10].
Regarding `NNC(=O)c1ccncc1` [ISONIAZID], the AC50 in [1], in [2], in [3], in [4], in [5] and in assay [6] was more than 30 µM each time. The AC50 in [7] is 32.7 µM; in assay [8], more than 30 µM; in assay [9] it was more than 30 µM; in assay [10], more than 30 µM.
In the case of `CCN1CC(CCN2CCOCC2)C(c2ccccc2)(c2ccccc2)C1=O` (stereo not given) [DOXAPRAM], the AC50 in assay [1], in assay [2], in assay [3], in assay [4], in assay [5] and in assay [6] was more than 30 µM throughout. The AC50 in assay [7], in assay [8], in assay [9] and in [10] was more than 30 µM in each case.
For the compound `CN1CCN=C(c2ccccc2)c2cc(Cl)ccc21` [MEDAZEPAM], the AC50 in assay [1], in assay [2], in [3], in assay [4], in assay [5] and in assay [6] was more than 30 µM in each case. Moreover, the AC50 in [7] was 15 µM; in assay [8], more than 30 µM; in assay [9], more than 30 µM; in assay [10], more than 30 µM.
As to `CC(c1cc2ccccc2s1)N(O)C(N)=O` (stereo not given) [ZILEUTON], the AC50 was more than 10 µM in assay [1]; more than 30 µM in assay [2]; more than 10 µM in assay [3]; more than 10 µM in [4]; more than 30 µM in assay [5]; more than 10 µM in assay [6]. The concentration at half-maximal activity (AC50) in assay [7] was more than 10 µM; in assay [8], more than 10 µM; in assay [9], more than 10 µM; in assay [10], more than 30 µM.
As to `CCN1CCCC1CNC(=O)c1cc(S(=O)(=O)CC)ccc1OC` (stereo not given) [SULTOPRIDE], the concentration at half-maximal activity (AC50) in assay [1], in assay [2], in assay [3], in assay [4], in [5] and in [6] was more than 30 µM in each case. The AC50 in assay [7], in assay [8], in assay [9] and in [10] was more than 30 µM in each case.
In the case of `COc1cc(C(=O)NC2CCCNC2)cc(OC)c1OC` (stereo not given) [TROXIPIDE], the concentration at half-maximal activity (AC50) in [1], in assay [2], in assay [3], in [4], in [5] and in assay [6] was more than 30 µM in each case. In addition, the AC50 in assay [7], in assay [8], in [9] and in assay [10] was more than 30 µM throughout.
In the case of `CCOC(=O)c1ccc(C#Cc2ccc3c(c2)C(C)(C)CCS3)nc1` [TAZAROTENE], the half-maximal activity concentration (AC50) in assay [1] was more than 10 µM; in assay [2] it was more than 30 µM; in [3], more than 10 µM; in assay [4] it was more than 30 µM; in [5], more than 30 µM; in assay [6] it was more than 30 µM. The AC50 in assay [7] was more than 30 µM; in assay [8] it was more than 10 µM; in assay [9] it was more than 30 µM; in [10], more than 30 µM.
Take `CCOC(=O)[C@@H](N)Cc1ccc(-c2cc(O[C@H](c3ccc(Cl)cc3-n3ccc(C)n3)C(F)(F)F)nc(N)n2)cc1` [TELOTRISTAT ETHYL]: the AC50 is more than 30 µM in [1]; more than 30 µM in [2]; more than 30 µM in assay [3]; more than 30 µM in assay [4]; more than 30 µM in [5]; 28 µM in assay [6]. Besides, the AC50 in assay [7] was 3.1 µM; in assay [8], more than 30 µM; in [9] it was 11 µM; in assay [10] it was more than 30 µM.
On to `COc1ccc(CN2CCN(C(c3ccc(F)cc3)c3ccc(F)cc3)CC2)c(OC)c1OC` [LOMERIZINE], for which the AC50 in [1] is more than 30 µM; in [2], more than 30 µM; in assay [3] it was more than 30 µM; in [4], more than 30 µM; in assay [5], 2.2 µM; in assay [6], 27 µM. In addition, the AC50 in assay [7] was 17 µM; in assay [8], more than 30 µM; in assay [9] it was more than 30 µM; in assay [10] it was more than 30 µM.
In the case of `O=C1CC[C@@H](C(=O)N2CSC[C@H]2C(=O)O)N1` [PIDOTIMOD] ([pGlu]-[Thz]-OH), the AC50 in assay [1], in assay [2], in assay [3], in [4], in assay [5] and in assay [6] was more than 30 µM in each case. Besides, the AC50 in [7], in [8], in assay [9] and in assay [10] was more than 30 µM in each case.
As to `OC[C@H]1O[C@@H](Oc2cc(O)cc(/C=C/c3ccc(O)cc3)c2)[C@H](O)[C@@H](O)[C@@H]1O` [PICEID], the AC50 in assay [1], in [2], in assay [3], in assay [4], in assay [5] and in assay [6] was more than 30 µM in each case. Further, the concentration at half-maximal activity (AC50) in assay [7], in assay [8], in assay [9] and in [10] was more than 30 µM in each case.
As for `COc1cc(C)c(/C=C/C(C)=C/C=C/C(C)=C/C(=O)O)c(C)c1C` [ACITRETIN], the AC50 in assay [1] was more than 10 µM; in assay [2], more than 30 µM; in assay [3], more than 10 µM; in [4] it was more than 10 µM; in assay [5], more than 30 µM; in assay [6], more than 10 µM. For the same compound, the AC50 in [7], in assay [8], in [9] and in [10] was more than 10 µM in each case.
